Counter-ions that a name gives are not always drawn. Like-named read-outs stand apart in the source and are kept apart here.
How the values were obtained:
[1] = tested on: lipid level in blood; assay: Action on the lipid level in blood (rats on high cholesterol feed); type: in vivo, Male Wistar strain rats; conditions: Rattus norvegicus, relative to the control, oral 25 mg/kg/day, starved 24 hours after final administration; for change in vivo at 25 mg/kg/day: high density lipoprotein-cholesterol, read-out: HDL-Ch increase rate
Description: Male Wistar strain rats with weights of about 200 g were given a high cholesterol feed containing 1 % cholesterol and 0.5 % cholic acid. Simultaneously, a suspension of a test compound in 5 % aq. gum arabic was orally administered in an amount of 25 mg/kg/day. After the final administration, the animals were starved for 24 hours and then evaluated for serum total cholesterol (TC), high density lipoprotein-cholesterol (HDL-Ch) and serum triglyceride (TG) content. The control group was orally given 5 % aq. solution of gum arabic. […] In Table 4, test compounds Nos. 1 to 11 correspond respectively to the hydrochlorides of the compounds of Examples 1 to 11.

[2] = tested on: hepatic parenchymal cells; assay: Action on incorporation of LDL (radioisotope-labeled LDL, primary culture); type: cell-based, male Wistar strain rat; conditions: Rattus norvegicus; relative to the control (DMSO only); test compound 10 µg/ml, incubated 24 hours, then labeled LDL for 4 hours; read-out: incorporation ratio of LDL
Description: hepatic cells were separated from the liver of a male Wistar strain rat weighing about 200 g, and the hepatic parenchymal cells were incubated in primary culture. 48 hours thereafter, a solution of a test compound in dimethylsulfoxide (DMSO) (10 µg/ml) was added thereto and incubated for 24 hours. Then, a radioisotope-labeled low density lipoprotein (LDL) was added thereto, and incubation was continued for further 4 hours. The cells were washed with physiological saline and then lysed with sodium dodecyl sulfate (SDS), and their radioactivity was determined in a liquid scintillation counter. The control group was treated in the same manner as above except for the addition of DMSO only. […] In Table 5, the test compounds 1 to 11 correspond respectively to the hydrochlorides of the compounds of Examples 1 to 11.

[3] = in vivo; conditions: mouse
Description: Acute toxicity was examined in the Litchfield and Wilcoxon's method where 10 ICR male mice were orally given a test compound.
The LD₅₀ of clofibrate was 1600 mg/kg.

[4] = serum total cholesterol, suspension in 5 % aq. gum arabic, read-out: TC decrease rate
[5] = serum triglyceride, read-out: TG decrease rate

| Structure (SMILES) | change in vivo at 25 mg/kg/day [1] | inhibition in vivo at 25 mg/kg/day [1, 4] | inhibition in vivo at 25 mg/kg/day [1, 5] | activation at 10 µg/mL [2] | LD50 ([3]; male, ICR, po) | LD50 ([3]; oral, 10 ICR male mice, read-out: LD₅₀) |
| --- | --- | --- | --- | --- | --- | --- |
| CCOC(=O)C(C)(C)Oc1ccc(Cl)cc1 [clofibrate] | -1.6% | 1.2% | -0.9% | -10.5% | 1600 mg/kg |  |
| CC(C)(C)N(c1ccc(Oc2ccccc2)cc1)S(C)(=O)=O [compound of Reference Example 3, 4-(N-t-butyl)methanesulfonylaminodiphenyl ether] | -0.7% | 3.6% | -2.1% | -15.7% |  |  |
| CCN(CC)c1ccc(Sc2ccc(C)cc2)cc1 [compound of Reference Example 4, N,N-diethyl-4-(4-tolylthio)aniline] |  | -16.2% | 30% |  |  |  |
| CC(C)(C)Nc1ccc(Sc2ccccc2)cc1 [test compound 1, 4-(t-butylamino)diphenylsulfide hydrochloride] | 39.4% | 95.7% | 48.5% | 65.3% |  | > 5000 mg/kg |

Reference: EP0666253A1, “N-t-BUTYLANILINE ANALOG AND LIPID LEVEL DEPRESSANT CONTAINING THE SAME” (priority 1992, dated 1994)
